Measured values published in patent US20120252721A1 (priority 2011, published 2012).

How the values were obtained:
[1] = test system: HCV genotype 2a; test: Genotype 2a assay (NS5A-intergenotypic luciferase replicon / genotype 2a infectious virus assay); type: cell-based; details: Hepatitis C virus, read-out: EC50 2a
Source text: (§1) The nucleotide sequences of the NS5A region of genotype 2a (GenBank Accession # AB047639), genotype 3a (GenBank Accession #D17763), and genotype 4a (GenBank Accession# DQ418788) were synthesized by an outside vendor. The NS5A region of each of these genotypes included the first 11 amino acids of the protease recognition sequence of genotype 1b, as well as the last 10 amino acids of genotype 1b. The NS5A gene cassettes were excised with site specific restriction endonucleases and ligated into a ZS11-luciferase genotype 1b backbone (backbone contains the genotype 1b NS3 protease, NS4a, NS4b, and NS5b coding regions) with similarly cut restriction enzyme sites. Thus, the newly constructed plasmid contains a genotype 2a-, 3a- or 4a-specific NS5A gene within the 1b-replicon.
(§2) These new intergenotypic plasmids were used to establish stable cell lines. RNA was generated from the NS5A intergenotypic plasmids and used in conjunction with a lipofectin reagent to transfect a cured Huh7 cell line. Transfected cells were selected for with G418. After selection has occurred the stable cell lines were propagated, tested for luciferase activity, and RT-PCR with genotype specific primers (either 1a, 2a, 3a, or 4a). Stable cell lines containing the intergenotypic replicon were then fully sequenced and analyzed for proper expression of NS3, NS5A and NS5B proteins.
(§3) Drug titration analysis was performed using the luciferase replicon assay described herein.
The genotype 2a infectious virus assay measures the ability of a test compound to inhibit HCV replication in cell culture after 5 days of treatment at the time of HCV genotype 2a virus infection of a permissive human hepatoma cell line (HPC cells). The inhibition of HCV replication was measured by quantification of HCV core protein expression by an enzyme-linked immunosorbent assay (ELISA). Briefly, HPC cells were grown in DMEM containing glucose, L-glutamine and sodium pyruvate, 10% FBS, 100 IU/mL penicillin, 100 μg/mL streptomycin, 2 mM GlutaMAX, and non-essential amino acids. GlutaMAX was obtained from Invitrogen, Corp.; all other media reagents were obtained from Mediatech, Inc. For dose-response testing, ninety-six-well plates were seeded with HPC cells at a density of 2.5×10^3 cells/well in a volume of 50 μL, and incubated at 37° C./5% CO2. Three hours after plating, 50 μL of ten 5-fold serial dilutions of compound and 100 μL of genotype 2a virus were added, and cell cultures were incubated at 37° C./5% CO2. In all cases, mock infected HPC cells served as negative control. At 16 hours post treatment and infection, the virus inoculum was removed by aspiration. The cultures were treated at the same final concentrations of drug diluted in media and incubated for 4 additional days at 37° C./5% CO2. Subsequently, the core ELISA was performed as follows. The plates were fixed for 90 seconds with acetone/methanol (1:1, v/v), washed three times with KPL wash solution (KPL, Inc.), blocked for 1 hr at room temperature with TNE buffer containing 10% FBS and then incubated for 2 hr at 37° C. with the anti-HCV core mouse monoclonal antibody (Thermo Scientific) diluted in the same buffer. After washing three times with KPL wash solution, the cells were incubated for 1 hr at 37° C. with an anti-mouse immunoglobulin G-peroxidase conjugate in TNE/10% FBS. After washing as described above, the reaction was developed with O-phenylenediamine (Invitrogen). The reaction was stopped after 30 min with 2 NH2SO4, and absorbance was read at 490 nm in a Victor^3V 1420 multilabel counter (Perkin Elmer) and EC50 concentrations were determined using Microsoft Excel and XLfit 4.1 software.
The HCV luciferase replicon assay measures the ability of a test compound to inhibit HCV replication in cell culture after 3 days of treatment in a human hepatoma cell line (Huh-7) bearing an HCV replicon containing a luciferase-neomycin phosphotransferase fusion gene. […]

[2] = test system: HCV genotype 4a NS5A within the 1b-replicon; test: Luciferase replicon assay, NS5A-intergenotypic stable cell line genotype 4a; type: cell-based; details: Hepatitis C virus, read-out: EC50 4a
Source text: as §1, §2, §3
(§4) The HCV luciferase replicon assay measures the ability of a test compound to inhibit HCV replication in cell culture after 3 days of treatment in a human hepatoma cell line (Huh-7) bearing an HCV replicon containing a luciferase-neomycin phosphotransferase fusion gene. The inhibition of HCV replication was measured by quantification of luciferase protein expression. Briefly, Huh-7 cells containing either the HCV genotype 1a H77 strain or genotype 1b Con1 strain subgenomic luciferase replicon (H1a-luc or Zluc, respectively) were grown in DMEM containing glucose, L-glutamine and sodium pyruvate, 10% fetal bovine serum (FBS), 100 IU/mL penicillin, 100 μg/mL streptomycin, 2 mM GlutaMAX, non-essential amino acids and 0.25 (H1a-luc) or 0.5 (Zluc) mg/mL G418. GlutaMAX was obtained from Invitrogen, Corp.; all other media reagents were obtained from Mediatech, Inc. For dose-response testing, the cells were seeded in 96-well plates at 1×10^4 (H1a-luc) or 7.5×10^3 (Zluc) cells/well in a volume of 50 μL, and incubated at 37° C./5% CO2. Three hours after plating, 50 μL of ten 5-fold serial dilutions of compound were added, and cell cultures were incubated at 37° C./5% CO2 for 72 hours. In all cases, Huh-7 cells lacking the HCV replicon served as negative control. To assess luciferase expression, the media/compound was removed from the plates and ONE-glo Luciferase assay reagent (Promega) was added to each well. The assay plates were shaken for 3 minutes at room temperature and luciferase activity for each well was measured with a 1 sec read time on the Victor^3V multilabel counter using a 700 nm cut-off filter (Perkin Elmer). EC50 values were calculated from dose response curves from the resulting best-fit equations determined by Microsoft Excel and XLfit 4.1 software.

[3] = in vitro; type: cell-based, human; details: human; Table 1B, cellular viability
Experimental: (§5) For cytotoxicity evaluation, HPC cells were treated with compounds as described above in the absence of the genotype 2a virus and cellular viability was monitored using the Cell Titer 96 AQueous One Solution Cell Proliferation Assay (Promega). Plates were then read at 490 nm in a Victor^3V 1420 multilabel counter (Perkin Elmer) and CC50 concentrations were determined using Microsoft Excel and XLfit 4.1 software.
as §5, with “H1a-luc or Zluc” for “HPC”, “above” for “above in the absence of the genotype 2a virus”

[4] = test system: HCV genotype 3a NS5A within the 1b-replicon; test: Luciferase replicon assay, NS5A-intergenotypic stable cell line genotype 3a; type: cell-based; details: Hepatitis C virus, read-out: EC50 3a
Source text: as §1, §2, §3, §4

[5] = test system: HCV genotype 1a H77 strain subgenomic luciferase replicon (H1a-luc); test: Luciferase replicon assay, genotype 1a; type: cell-based; details: Hepatitis C virus; genotype 1a; read-out: EC50 1a
Experimental: as §3, §4

[6] = test system: HCV genotype 1b Con1 strain subgenomic luciferase replicon (Zluc); test: Luciferase replicon assay, genotype 1b; type: cell-based; details: Hepatitis C virus
Experimental: as §4

[7] = test system: HCV; details: combination therapy (Poynard et al.); cited from earlier work

Row | Compound | EC50 [1] [nM] | EC50 [2] [nM] | CC50 [3] [nM] | EC50 [4] [nM] | EC50 [5] [nM] | EC50 [6] [nM] | sustained efficacy, share of patients [7]
1 | COC(=O)N[C@@H](C(=O)N1CCCC1c1nc2ccc(-c3csc4c(-c5ccc6[nH]c(C7CCCN7C(=O)[C@H](NC(=O)OC)C(C)C)nc6c5)csc34)cc2[nH]1)c1ccccc1 (stereo partly drawn) [Compound A208] | < 0.1 | < 0.1 | > 75000 | < 0.1 | < 0.1 | < 0.1 | –
2 | alpha-interferon and ribavirin | – | – | – | – | – | – | about 40%
3 | COC(=O)N[C@H](C(=O)N1CCC[C@H]1c1ncc(-c2ccc(-c3cc4sc(-c5ccc6[nH]c([C@@H]7CCCN7C(=O)[C@H](NC(=O)OC)c7ccccc7)nc6c5)cc4s3)cc2)[nH]1)C(C)C [Compound A194, [(S)-1-((S)-2-{4-[4-(5-{(S)-2-[1-((R)-2-methoxycarbonylamino-2-phenyl-acetyl)-pyrrolidin-2-yl]-3H-benzoimidazol-5-yl}-thieno[3,2-b]thiophen-2-yl)-phenyl]-1H-imidazol-2-yl}-pyrrolidine-1-carbonyl)-2-methyl-propyl]-carbamic acid methyl ester] | 1 to 10 | < 0.1 | > 75000 | 0.1 to 1 | 0.1 to 1 | < 0.1 | –
4 | COC(=O)NC(C(=O)N1CCCC1c1ncc(-c2cc3sc(-c4ccc5[nH]c(C6CCCN6C(=O)C(NC(=O)OC)C(C)C)nc5c4)cc3s2)[nH]1)C(C)C (stereo in doubt) [Compound A176, ((S)-1-{(S)-2-[5-(5-{(S)-2-[1-((S)-2-methoxycarbonylamino-3-methyl-butyryl)-pyrrolidin-2-yl]-3H-benzoimidazol-5-yl}-thieno[3,2-b]thiophen-2-yl)-1H-imidazol-2-yl]-pyrrolidine-1-carbonyl}-2-methyl-propyl)-carbamic acid methyl ester] | 0.1 to 1 | 0.1 to 1 | 10000 to 75000 | 0.1 to 1 | 0.1 to 1 | < 0.1 | –
5 | COC(=O)N[C@H](C(=O)N1CCC[C@H]1c1nc2ccc(-c3csc4c(C#Cc5cnc([C@@H]6CCCN6C(=O)[C@H](NC(=O)OC)c6ccccc6)[nH]5)csc34)cc2[nH]1)C(C)C [Compound A206] | < 0.1 | < 0.1 | > 75000 | < 0.1 | – | < 0.1 | –
